Converted amounts (≈) assume the structure as drawn. Positions of bridges follow the written chain, without caps; N, C: chain ends. Non-standard residues stand in square brackets, D forms with d. Residues, ends and D or L forms follow the SMILES beside them. *: point of attachment. Decanoyl(3R-OH) = CCCCCCC[C@@H](O)CC(=O)*; 1Nal = N[C@@H](Cc1cccc2ccccc12)C(=O)O; dDab = NCC[C@@H](N)C(=O)O; dDap = NC[C@@H](N)C(=O)O; Dab = NCC[C@H](N)C(=O)O
Columns and labels:
Neisseria gonorrhoeae = assay: MIC determination, Neisseria gonorrhoeae; format: cell-based; conditions: strain FA19 ATCC BAA-1838
Procedure: Bacteria were either obtained from American Type Culture Collection (ATCC; Manassas, Va., USA) or independent academic clinical isolate collections, as listed in Table 18 below. Bacteria were cultured in Nutrient broth (NB; Bacto Laboratories, catalogue No. 234000) or Mueller Hinton broth (MHB; Bacto Laboratories, catalogue No. 211443) at 37° C. overnight with shaking (˜180 RPM). A sample of each culture was then diluted 50-fold in fresh MHB and incubated at 37° C. for 2-3 h with shaking (˜180 RPM). Compound stock solutions were prepared as 0.64 mg/mL or 2.56 mg/mL in water. The compounds, at twice the final desired concentration, were serially diluted 2-fold across the wells of 96-well plates (Polystyrene, Corning, catalogue No. 3370). Mid-log phase bacterial cultures (after 2-3 h incubation) were diluted to a final concentration of 1×10^6 colony forming units (CFU)/mL, and 50 μL was added to each well giving a final cell density of 5×10^5 and a compound concentration range of 32 μg/mL to 0.015 μg/mL (128-0.06 μg/mL against P. aeruginosa PA9704).

in vitro = conditions: human
In short: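 Cells were seeded at 4000 per well and allowed to attach for 24 h at 37 °C, 5% CO2, then exposed to compounds for 24 h. Resazurin (5 μM) was added for 2 h at 37 °C and fluorescence read at 560/590 nm. CC50 was derived by curve fitting of dose-dependent growth inhibition.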

A. baumannii ATCC 19606 = conditions: ATCC 19606
In short: (§1)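 Mid-log cultures grown in Mueller Hinton broth at 37° C were tested by 2-fold broth microdilution at 5×10^5 CFU/mL final. Compounds were dissolved in water and tested over a final range of 32 to 0.015 μg/mL.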

A. baumannii GN_093 PmxR = conditions: GN 093 PmxR
In short: as §1

[1] = tested on: K. pneumoniae GN_102 PmxR; conditions: GN 102 PmxR
In short: as §1

[2] = tested on: K. pneumoniae ATCC 700603, MDR; conditions: ATCC 700603
In short: as §1

K. pneumoniae ATCC 13883 = conditions: ATCC 13883
In short: as §1

[3] = tested on: P. aeruginosa GN_043, PmxR; conditions: polymyxin-resistant
In short: as §1

P. aeruginosa ATCC 27853 = conditions: ATCC 27853
In short: as §1

[4] = tested on: K. pneumoniae GN_106, PmxR; conditions: GN 106, PmxR
In short: as §1

[5] = tested on: S. aureus ATCC 25923, MSSA; conditions: ATCC 25923
In short: as §1

[6] = tested on: K. pneumoniae ATCC BAA-2146, NDM-1 pos; conditions: ATCC BAA-2146
In short: as §1

E. coli ATCC 25922 = conditions: ATCC 25922
In short: as §1

[7] = tested on: P. aeruginosa GN_105, PmxR; conditions: GN 105, PmxR
In short: as §1

With CCCCCCC[C@@H](O)CC(=O)N[C@H](CCN)C(=O)N[C@H]1CCNC(=O)[C@H](Cc2cccc3ccccc23)NC(=O)[C@H](CCN)NC(=O)[C@H](CCN)NC(=O)[C@H](CC(C)C)NC(=O)[C@@H](Cc2ccccc2)NC(=O)[C@H](CCN)NC1=O [compound 8909, 3(R)OH-nC9CO-D-Dab-cyc[L-Dab-L-Dab-D-Phe-L-Leu-L-Dab-L-Dab-L-Ala(1Naphthyl)]] ({Decanoyl(3R-OH)}-[dDab][Dab][Dab][dF]L[Dab][Dab][1Nal]; lactam 2-C) the “MIC N. gonorrhoeae FA19 ATCC BAA-1838” value (Neisseria gonorrhoeae) was 0.78 µg/mL (≈ 0.691 µM), the CC50 at 24 h (in vitro) was 26 µM and the “MIC A. baumannii ATCC 19606” value (A. baumannii ATCC 19606) was 4 µg/mL (≈ 3.54 µM). For the same molecule, the “MIC A. baumannii GN_093 PmxR” value (A. baumannii GN_093 PmxR) was 4 µg/mL (≈ 3.54 µM), the “MIC K. pneumoniae GN_102 PmxR” value [1] was 4 µg/mL (≈ 3.54 µM) and the “MIC K. pneumoniae ATCC 700603, MDR” value [2] was 2 µg/mL (≈ 1.77 µM). For the same molecule, the “MIC K. pneumoniae ATCC 13883” value (K. pneumoniae ATCC 13883) was 2 µg/mL (≈ 1.77 µM), the “MIC P. aeruginosa GN_043, PmxR” value [3] was 4 µg/mL (≈ 3.54 µM) and the “MIC P. aeruginosa ATCC 27853” value (P. aeruginosa ATCC 27853) was 2 µg/mL (≈ 1.77 µM). The “MIC K. pneumoniae GN_106, PmxR” value [4] was 4 µg/mL (≈ 3.54 µM), the “MIC S. aureus ATCC 25923, MSSA” value [5] was 2 µg/mL (≈ 1.77 µM) and the “MIC K. pneumoniae ATCC BAA-2146, NDM-1 pos” value [6] was 4 µg/mL (≈ 3.54 µM). The “MIC E. coli ATCC 25922” value (E. coli ATCC 25922) was 2 µg/mL (≈ 1.77 µM) and the “MIC P. aeruginosa GN_105, PmxR” value [7] was 2 µg/mL (≈ 1.77 µM).

For CCCCCCC[C@@H](O)CC(=O)N[C@H](CN)C(=O)N[C@H]1CCNC(=O)[C@H](CC(C)C)NC(=O)[C@H](CCN)NC(=O)[C@H](CO)NC(=O)[C@H](CC(C)C)NC(=O)[C@@H](Cc2ccccc2)NC(=O)[C@H](CCN)NC1=O [compound 9193, 3(R)-OH-nC9CO-D-Dab-cyc[L-Dab-L-Dab-L-Leu-D-Phe-L-Dab-L-Dab-L-Leu]] ({Decanoyl(3R-OH)}-[dDap][Dab][Dab][dF]LS[Dab]L; lactam 2-C), the “MIC N. gonorrhoeae FA19 ATCC BAA-1838” value (Neisseria gonorrhoeae) was 25 µg/mL (≈ 24.6 µM), the CC50 at 24 h (in vitro) was greater than 300 µM and the “MIC, A. baumannii ATCC 19606” value (A. baumannii ATCC 19606) was 32 µg/mL (≈ 31.5 µM). For the same molecule, the “MIC, A. baumannii Cl Ptyela 10073 4512:2, PmxR” value (A. baumannii GN_093 PmxR) was greater than 32 µg/mL, the “MIC, K. pneumoniae Cl Koprana 10065 0661:1, PmxR” value [1] was greater than 32 µg/mL and the “MIC, K. pneumoniae ATCC 700603, MDR” value [2] was greater than 32 µg/mL. For the same molecule, the “MIC, K. pneumoniae ATCC 13883” value (K. pneumoniae ATCC 13883) was greater than 32 µg/mL, the “MIC, P. aeruginosa FADDI-PA070, PmxR” value ([3]; Table 5) was greater than 32 µg/mL and the “MIC, P. aeruginosa ATCC 27853” value (P. aeruginosa ATCC 27853) was 32 µg/mL (≈ 31.5 µM). The “MIC, K. pneumoniae Cl 138-16347-20362, PmxR” value [4] was greater than 32 µg/mL, the “MIC, S. Aureus ATCC 25923, MSSA” value [5] was greater than 32 µg/mL and the “MIC, K. pneumoniae ATCC BAA-2146, NDM-1 pos” value [6] was greater than 32 µg/mL. For the same molecule, the “MIC, E. coli ATCC 25922” value (E. coli ATCC 25922) was greater than 32 µg/mL and the “MIC, P. aeruginosa PA9704, PmxR” value [7] was greater than 32 µg/mL.
